Source: patent US6544166B1, “Treatment of human infertility” (priority 1999, dated 2003)
Marks after values point to notes of the source that are not given here.

Legend:
[1] = test system: cumulus enclosed human oocytes; experiment: Maturation of cumulus enclosed human oocytes with FF-MAS; format: cell-based
From the text: Although the use of FF-MAS improves the rate of fertility compared to the currently applied methods, it is still desirable to increase this rate even further.

[2] = test system: mouse oocytes; experiment: In vitro fertilization of mouse oocytes after in vitro maturation with or without Hx arrest and FF-MAS induction (Example 4); format: cell-based, mice (C57Bl/6J×DBA/2J F1-hybrids)
Protocol: Aim: to optimize the culture conditions for mammalian oocytes by arresting the spontaneous maturation for 4 hours before initiating oocyte maturation by the means of adding a adequate concentration of FF-MAS.
Óocytes were obtained from immature (21-24 day old) female mice (C57Bl/6J×DBA/2J F1-hybrids, M&B, Denmark) weighing 13-16 grams, which were kept under controlled lighting and temperature. […] The ovaries were dissected out and the oocytes were isolated in Hx-medium (see below) under a stereomicroscope by manual rupture of the follicles using a pair of 27 gauge needles. Spherical oocytes displaying an intact germinal vesicle (GV) were selected and placed in α-minimum essential medium (α-MEM without ribonucleosides, Gibco BRL, Cat. No. 22561) supplemented with 3 mM hypoxanthine (Sigma Cat. No. H-9377), 8 mg/ml Human Serum Albumin (HSA, State Serum Institute, Denmark), 0.23 mM pyruvate (Sigma, Cat. No. S-8636), 2 mM glutamine (Flow Cat. No. 16-801), 100 IU/ml penicillin and 100 μg/ml streptomycin (Flow, Cat. No. 16-700). This medium was designated Hx-medium. The exact same medium without Hx was designated Hx-free medium
Thus oocytes were cultured in 4-well multidishes (Nunclon, Denmark) in which each well contained 0.4 ml of Hx-medium or medium without Hx (to allow for spontaneous maturation) and 35-45 oocytes.
Different treatment groups:
1. Controls: No inhibition, No FF-MAS
2. MAS: No inhibition and 10 μM FF-MAS
3. Inhibition and then spontaneous maturation: Hx-medium for 4 hours then transfer to Hx-free medium
4. Inhibition and FF-MAS induction: Hx-medium for 4 hours and addition of FF-MAS to Hx-medium
5. Inhibition and removal of inhibition and then subsequently FF-MAS induction: Hx-medium for 4 hours, rinse, transfer to Hx-free medium and addition of FF-MAS.
In vitro fertilization following 16-20 hours maturation.
Endpoints: Fertilization rate and in vitro embryo development.

[3] = test system: mouse oocytes; conditions: 24 hours meiotic arrest with hypoxanthine, then 16-30 hour culture in inhibitor-free medium; cited from earlier work
[4] = Treatment No 4: Hx-medium for 4 hours and addition of FF-MAS to Hx-medium
[5] = Treatment No 5: Hx-medium for 4 hours, rinse, transfer to Hx-free medium and addition of FF-MAS
[6] = Treatment No 3: Hx-medium (3 mM hypoxanthine) for 4 hours then transfer to Hx-free medium, no FF-MAS

Structure (SMILES)	Effect on nuclear and cytoplasmic maturation [1]	Oocyte quality evaluated as fertilization rate and embryonic developmental capacity, compared with the other treatments ([2]; 4th treatment modality: inhibition (Hx-medium) and FF-MAS induction)	Embryo development Rate (8-cell rate at 72 hours) ([2]; Treatment No 2: no inhibition and 10 μM FF-MAS) [%]	Fertilization Rate ([2]; Treatment No 2: no inhibition and 10 μM FF-MAS, IVF following 16-20 hours maturation) [%]	Embryo development Rate (8-cell rate at 72 hours) [2, 4] [%*]	Fertilization Rate [2, 4] [%*]	Embryo development Rate (8-cell rate at 72 hours) [2, 5] [%]	Fertilization Rate [2, 5] [%]	Embryo development Rate (8-cell rate at 72 hours) [2, 6] [%]	Fertilization Rate [2, 6] [%]	Arrested oocytes that resumed maturation [3] [%]
CC(C)=CCC[C@@H](C)[C@H]1CC=C2C3=C(CC[C@@]21C)[C@@]1(C)CC[C@H](O)C(C)(C)[C@@H]1CC3 [FF-MAS, 4,4-dimethyl-5α-cholesta-8,14,24-triene-3β-ol]	improves not only nuclear but cytoplasmic maturation	significantly superior to the other treatment alternatives	<10	<50	30	75	<10	<50			
O=c1[nH]cnc2nc[nH]c12 [hypoxanthine, Hypoxanthine]									<10	<50	~100
